According to patent publication US10494378B2, “Fused ring pyrimidine compound, intermediate, and preparation method, composition and use thereof” (GUANGZHOU MAXINOVEL PHARMACEUTICALS CO., LTD., priority 2015, dated 2019):

Assays:
Assay type in all cases: biochemical
JAK2 kinase = molecular target: T1, JAK2 kinase (Homo sapiens, UniProt O60674); experiment: IC50 evaluation assay on JAK2 kinase inhibition (Caliper); settings: adenosine triphosphate at Km; 1 hour at 28° C.; average of two tests; read-out: IC50 (nM) inhibiting JAK 2 kinase
T1 construct: purchased Carna 08-045
T1 sequence (O60674 whole entry): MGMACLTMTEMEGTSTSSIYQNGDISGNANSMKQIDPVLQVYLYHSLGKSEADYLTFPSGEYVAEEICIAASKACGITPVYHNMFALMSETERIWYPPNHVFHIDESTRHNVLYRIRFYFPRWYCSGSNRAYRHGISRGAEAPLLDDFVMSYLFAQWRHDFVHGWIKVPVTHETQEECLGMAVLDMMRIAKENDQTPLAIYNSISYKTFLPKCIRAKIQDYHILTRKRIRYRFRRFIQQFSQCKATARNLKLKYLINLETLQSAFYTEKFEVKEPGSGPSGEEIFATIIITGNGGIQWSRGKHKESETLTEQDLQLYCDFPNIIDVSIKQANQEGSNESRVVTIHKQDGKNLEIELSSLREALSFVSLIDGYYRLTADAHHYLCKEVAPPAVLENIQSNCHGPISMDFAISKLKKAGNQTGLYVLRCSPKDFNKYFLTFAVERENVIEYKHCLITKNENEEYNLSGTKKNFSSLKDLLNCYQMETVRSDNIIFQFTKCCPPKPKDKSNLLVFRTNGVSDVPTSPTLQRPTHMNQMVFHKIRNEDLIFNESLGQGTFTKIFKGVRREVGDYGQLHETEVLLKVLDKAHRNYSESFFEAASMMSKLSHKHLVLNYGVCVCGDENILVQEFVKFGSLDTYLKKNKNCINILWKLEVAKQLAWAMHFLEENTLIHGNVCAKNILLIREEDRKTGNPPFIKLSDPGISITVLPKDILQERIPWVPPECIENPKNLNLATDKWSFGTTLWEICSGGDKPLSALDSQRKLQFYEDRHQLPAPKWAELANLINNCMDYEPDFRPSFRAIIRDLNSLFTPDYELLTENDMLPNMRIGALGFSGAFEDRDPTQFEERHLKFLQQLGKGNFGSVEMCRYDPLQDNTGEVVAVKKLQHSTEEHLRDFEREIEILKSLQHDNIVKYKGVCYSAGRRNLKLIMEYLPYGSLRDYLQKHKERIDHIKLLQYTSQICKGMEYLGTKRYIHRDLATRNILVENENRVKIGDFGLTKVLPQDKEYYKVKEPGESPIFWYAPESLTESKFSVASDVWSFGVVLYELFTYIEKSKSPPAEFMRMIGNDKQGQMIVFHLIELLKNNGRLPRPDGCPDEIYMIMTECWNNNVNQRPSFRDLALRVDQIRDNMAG
Procedure: 1. The compound was dissolved in 100% DMSO, diluted into solutions with appropriate concentration gradients with water according to experimental requirement, and added to a 384-well plate.
2. JAK2 kinase (Carna, Cat. No. 08-045, Lot. No. 07CBS-1927) and JAK3 kinase (Carna, Cat. No. 08-046, Lot. No. 08CBS-0371) were diluted to the optimum concentration with the following buffer solution: 50 mM HEPES, pH 7.5, 0.0015% Brij-35, 2 mM DTT. JAK1 kinase (Carna, Cat. No. 08-144, Lot. No. 11CBS-0144D) was diluted to the optimum concentration with the following buffer solution: 25 mM HEPES pH 7.5, 0.01% Brij-35, 2 mM DTT, 0.01M Triton. Transfer to the 384-well plate and incubated with the compound for a period of time.
3. […] The substrate of JAK1 was diluted to the optimum concentration with the following buffer: 25 mM HEPES, pH 7.5, 0.01% Brij-35, 10 mM MgCl2, 0.01M Triton, adenosine triphosphate at Km. Add to the 384-well plate to initiate there action and react for 1 hour at 28° C.
4. 1 Eq. of sulfuric acid solution was added to terminate the reaction, the conversion rate was read with Caliper Reader. The inhibition rate was calculated as the average of two tests.

FLT3-D835Y kinase = molecular target: T2, FLT3-D835Y kinase (Homo sapiens, UniProt P36888, D835Y); experiment: IC50 evaluation assay of FLT3-D835Y kinase inhibition (Caliper); settings: 28° C.; average of two tests; read-out: IC50 (nM) inhibiting FLT3-D835Y kinase
T2 construct: purchased Invitrogen PR7450A
T2 sequence (P36888 27-993 D835Y): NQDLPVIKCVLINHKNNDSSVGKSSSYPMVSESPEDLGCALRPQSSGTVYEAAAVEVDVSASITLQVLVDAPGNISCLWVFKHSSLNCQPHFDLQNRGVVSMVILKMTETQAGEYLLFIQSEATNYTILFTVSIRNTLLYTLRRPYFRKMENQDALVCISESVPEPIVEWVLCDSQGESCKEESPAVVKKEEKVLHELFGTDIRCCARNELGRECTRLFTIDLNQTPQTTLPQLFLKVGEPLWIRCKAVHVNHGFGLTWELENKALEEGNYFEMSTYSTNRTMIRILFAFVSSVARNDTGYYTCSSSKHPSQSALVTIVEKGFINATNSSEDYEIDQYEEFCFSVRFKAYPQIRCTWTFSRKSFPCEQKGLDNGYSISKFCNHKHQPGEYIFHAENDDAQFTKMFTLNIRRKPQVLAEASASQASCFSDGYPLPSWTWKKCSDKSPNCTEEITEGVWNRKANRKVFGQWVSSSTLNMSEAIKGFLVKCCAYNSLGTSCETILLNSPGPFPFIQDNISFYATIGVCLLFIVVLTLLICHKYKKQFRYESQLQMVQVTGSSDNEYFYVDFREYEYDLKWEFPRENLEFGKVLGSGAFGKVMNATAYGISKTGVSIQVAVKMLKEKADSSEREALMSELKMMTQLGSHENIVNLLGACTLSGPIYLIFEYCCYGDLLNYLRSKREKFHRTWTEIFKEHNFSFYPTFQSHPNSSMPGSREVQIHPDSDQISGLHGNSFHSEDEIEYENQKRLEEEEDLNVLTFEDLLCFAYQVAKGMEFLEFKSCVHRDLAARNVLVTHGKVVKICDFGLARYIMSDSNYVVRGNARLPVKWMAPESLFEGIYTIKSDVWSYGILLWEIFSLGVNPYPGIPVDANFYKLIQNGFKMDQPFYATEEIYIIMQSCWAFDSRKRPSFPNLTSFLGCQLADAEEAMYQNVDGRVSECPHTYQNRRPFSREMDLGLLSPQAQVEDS
Procedure: (§1) 1. The compound was dissolved in 100% DMSO, diluted into solutions with appropriate concentration gradients with water according to experimental requirement, and added to a 96-well plate.
2. FLT3 kinase (Carna, Cat. No. 08-154, Lot. No. 07CBS-2350), FLT3-ITD kinase (Invitrogen, Cat. No. PV6191, Lot. No. 1753453) and FLT3-D835Y kinase (Invitrogen, Cat. No. PR7450A, Lot. No. 1629729C) were diluted to the optimum concentration with the following buffer solution: 50 mM HEPES, pH 7.5, 0.0015% Brij-35, 10 mM MgCl2, 2 mM DTT. Transfer to the 96-well plate and incubate with the compound at 28° C. for a period of time.
(§2) 3. The buffer solution (100 mM HEPES, pH 7.5, 0.0015% Brij-35, 0.2% Coating Reagent and […]) was added to terminate the reaction.
(§3) 4. The conversion rate was read with Caliper Reader. The inhibition rate was calculated as the average of two tests.

YES kinase = molecular target: T3, YES kinase (Homo sapiens, UniProt P07947); experiment: IC50 evaluation assay of Src family kinase inhibition: YES; settings: 28° C.; average of two tests; read-out: IC50 (nM) inhibiting Src family kinase YES
T3 construct: purchased Carna 08-175
T3 sequence (P07947 whole entry): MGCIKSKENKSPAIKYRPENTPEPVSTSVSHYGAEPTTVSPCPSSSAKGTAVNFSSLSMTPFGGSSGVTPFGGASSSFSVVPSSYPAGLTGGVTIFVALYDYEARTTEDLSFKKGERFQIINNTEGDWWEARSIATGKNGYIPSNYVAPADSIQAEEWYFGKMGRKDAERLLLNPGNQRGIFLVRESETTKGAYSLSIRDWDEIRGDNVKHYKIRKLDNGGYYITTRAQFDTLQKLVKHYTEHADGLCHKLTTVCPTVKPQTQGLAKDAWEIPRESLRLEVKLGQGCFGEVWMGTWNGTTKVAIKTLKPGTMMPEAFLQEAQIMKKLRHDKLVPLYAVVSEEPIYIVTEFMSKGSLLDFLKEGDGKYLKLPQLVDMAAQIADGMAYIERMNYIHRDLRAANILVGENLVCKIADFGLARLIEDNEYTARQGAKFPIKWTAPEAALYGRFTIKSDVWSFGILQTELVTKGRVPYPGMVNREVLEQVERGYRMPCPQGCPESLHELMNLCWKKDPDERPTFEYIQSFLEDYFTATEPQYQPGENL
Procedure: as §1
2. c-Src kinase (Carna, Cat. No. 08-173, Lot. No. 05CBS-1367), LYNαkinase (Carna, Cat. No. 08-171, Lot. No. 06CBS-3296D), FYN kinase (Carna, Cat. No. 08-068, Lot. No. 05CBS-1032), LCK kinase (Carna, Cat. No. 08-170, Lot. No. 07CBS-2482), HCK kinase (BPS, Cat. No. 40440, Lot. No. 1001), FGR kinase (Carna, Cat. No. 08-166, Lot. No. 05CBS-2781), YES kinase (Carna, Cat. No. 08-175, Lot. No. 06CBS-3247) were diluted to the optimum concentration with the following buffer solution: 50 mM HEPES, pH 7.5, 0.0015% Brij-35, 10 mM MgCl2, 2 mM DTT. Transfer to the 96-well plate and incubate with the compound at 28° C. for a period of time.
as §2, §3

Row | IC50 (JAK2 kinase) | IC50 (FLT3-D835Y kinase) | IC50 (YES kinase) | SMILES
1 | 0.71 nM | 0.23 nM | 6.8 nM | COc1cc(F)ccc1-c1c(C)sc2cnc(Nc3cnn(C4CCN(CCO)CC4)c3)nc12 [Compound 34, 2-[4-(4-{[7-(4-fluoro-2-methoxyphenyl)-6-methylthieno[3,2-d]pyrimidinyl-2-yl]amino}-1H-pyrazol-1-yl)-piperidinyl-1-yl]-1-ethanol]
2 |  | 0.2 nM | 5.8 nM | COc1cc(F)ccc1-c1c(C)sc2cnc(Nc3cnn(C4CCNCC4)c3)nc12 [Compound 31, N-[7-(4-fluoro-2-methoxyphenyl)-6-methylthieno[3,2-d]pyrimidinyl-2-yl]-1-(piperidinyl-4-yl)-1H-pyrazol-4-amine]
